Results on three molecules are retold here after patent US6713633B1, “Compounds capable of cleaving double-stranded DNA and method of utilization of the same” (Japan Science and Technology Corporation, priority 1999, dated 2004).

The structures appear in SMILES notation.

The test system of one experiment is HeLaS3 cells. The experiment is described as follows: Growth Inhibitory Test on HeLaS3 Cells. The note with it: Homo sapiens, HeLa S3, 72 hours incubation, cell counts. Format: cell-based. The method, then: Cytotoxic activity of the compound of the present invention based on the properties described hereinbefore was examined. Cytotoxic activities of PyPyLDu86 and ImPyLDu86 of the present invention and known anticancer agent duocarmycin on HeLaS3 cells (uterocervical squamous cell carcinoma cells) were tested.
Suspension 0.75 ml of HeLaS3 cells, 2.67×10^4 cells/ml, in MEM medium containing 10% fetal bovine serum and 2 mM glutamine, was dispensed into each well in 24 cell culture plate. After incubation in the CO2-incubator at 37° C. for overnight, 0.25 ml portions of each test compound shown in Table 1, which was appropriately diluted with medium, was added into each well.
After cells were incubated for 72 hours in the CO2-incubator, the culture supernatant was removed, and cells were dispersed using trypsin-ethylenediaminetetraacetic acid (EDTA) and collected. Cell counts were counted by cell counter, and cell counts without treatment and cell counts treated with known concentration of test compound were compared to calculate the concentration of test compound which inhibits 50% of cell growth (IC50).

For experiment [1], the system named is 5′-end texas red-modified 450 bp DNA fragments pUC18 F780*-1229 and pUC18 R1459*-1908. As to the kind of experiment: Alkylation of 450 bp DNA fragments (thermally induced strand cleavage, high-resolution gel electrophoresis). Format: biochemical. From the text:
Reactivities of the thus synthesized PyPyLDu86 and ImPyLDu86 with DNA were investigated.
The left electrophoresis pattern is a result of the upper strand of the double-strand DNA, and the right electrophoresis pattern is a result of the lower strand of the double-strand DNA. […] No compounds have been known to occur such the cleavage, and in this sense, the compound of the present invention can be said as an artificial restriction enzyme.
(1) Preparation of 5′-texas red-end-modified 450 bp DNA fragment
The 5′-end texas red-modified 450 bp DNA fragments pUC18 F780*-1229 and pUC18 R1459*-1908 (these are complementary) were prepared by the PCR method using 5′-end texas red-modified 18mers as primers and purified by filtration using Suprec-02. The concentration was determined by ethidium bromide staining. The asterisk (*) indicates texas red modification site, and numerals indicates nucleotide numbering from the replication origin.
(2) High-resolution gel electrophoresis
A standard reaction mixture containing 5′-end texas red-labeled DNA fragment 60 nM, DMF 5% (v/v) and various concentrations of drugs in total 10 μl of sodium phosphate buffer (pH 7.0) 12.5 mM was added into microcentrifugal tube (Eppendorf tube) and allowed to stand at room temperature for overnight. Calf thymus DNA (5 mM, 1 μl) was added thereto and heated at 90° C. for 5 minutes. DNA was collected by ethanol precipitation. […]

Usually IC50 stands for the concentration needed to halve the response being measured. The low end stands for inhibition by little substance, the high end for a need for much substance. In the experiment with HeLaS3 cells, `COC(=O)c1cc2c([nH]1)C(=O)C=C1N(C(=O)c3cc4cc(OC)c(OC)c(OC)c4[nH]3)C[C@H]3C[C@]123` [Duocaraycin, duocarmycin, reference compound] returned an IC50 of 4.7 nM.

`COC(=O)c1c(C)[nH]c2c1C13CC1CN(C(=O)/C=C/c1cc(NC(=O)c4nc(NC(C)=O)cn4C)cn1C)C3=CC2=O` (centres unmarked) [ImPyLDu86] yielded a concentration for half-maximal inhibition (IC50) in the experiment with HeLaS3 cells of 0.7 nM. Moreover, the efficiency of cleavage in experiment [1] (double-strand DNA cleavage, calculated by an amount of used ImPyLDu86) is listed as ~70%. In addition, in experiment [1] (upper and lower strand, thermally induced strand cleavage, from the lower concentration), the “cleavage of the double-strand DNA (sites)” value is “mainly cleaved at the site 1 and the site 2 of the two strands”.

In turn, `COC(=O)c1c(C)[nH]c2c1C13CC1CN(C(=O)/C=C/c1cc(NC(=O)c4cc(NC(C)=O)cn4C)cn1C)C3=CC2=O` (centres unmarked) [PyPyLDu86] returned an IC50 in the experiment with HeLaS3 cells of 1.5 nM.
